Experimental data taken from patent US4387101A, “Thiazolidine derivatives and their use” (Takeda Chemical Industries, Ltd., priority 1980, dated 1983).

Experiments:
[1] = single-dose lethality test in mice; format: in vivo; details: 2500 mg/kg once; groups of 5 mice
Description: In a test in mice (each group consisting of 5 mice), when the compounds (I), for example, 5-(3-ethoxy-4-pentyloxyphenyl)thiazolidine-2,4-dione and 5-(3-ethoxy-4-isopentyloxyphenyl)thiazolidine-2,4-dione were administered at a dose of 2500 mg/kg once, no mouse died.

aldose reductase = target: T1, aldose reductase (Homo sapiens, UniProt P15121); test: aldose reductase activity, partially purified preparation from human placenta; format: biochemical; details: 10^-6 M
T1 construct: partially purified aldose reductase preparation from human placenta; from tissue; host or cells: human placenta
Description: The effect of the thiazolidine derivative (I) on aldose reductase activity was assayed after the method described in S. Haymen et al., Journal of Biological Chemistry, Vol. 240, 877 (1965) and Jin H. Kinoshita et al., Metabolism, Vol. 28, Nr. 4, Suppl 1, 462 (1979), etc. The enzyme used in the assay was a partially purified aldose reductase preparation from human placenta. The results for the respective compounds were expressed as % inhibition at the concentration of 10^-6 mole and are shown in Table 2.

rat lens = test: swelling inhibitory effect in rat lens culture assay; format: cell-based; details: 10^-6 M
Description: The swelling inhibitory effect of each compound in a rat lens culture assay was evaluated by the method described in H. Obazawa et al., Invest. Ophthalmol Vol. 13, Nr. 3, 204 (1974).
The result for each compound was expressed as the % inhibition of swelling into the lens at the concentration of 10^-6 mole and are shown in Table 3.

Row | SMILES | inhibition at 1 µM (aldose reductase) | death of mice [1] | inhibition at 1 µM (rat lens)
1 | CCOc1cc(C2SC(=O)NC2=O)ccc1OCCC(C)C (stereo not drawn) [5-(3-ethoxy-4-isopentyloxyphenyl)thiazolidine-2,4-dione] | – | no mouse died | –
2 | CCCCCOc1ccc(C2SC(=O)NC2=O)cc1OCC (stereo not drawn) [Example 4, 5-(3-ethoxy-4-pentyloxyphenyl)-thiazolidine-2,4-dione] | 34.6% | no mouse died | 44.6%
3 | Cc1ccc(C2SC(=O)NC2=O)cc1C (stereo not drawn) [Example 5, 5-(3,4-dimethylphenyl)thiazolidine-2,4-dione] | 35.8% | – | –
4 | COc1ccc(C2SC(=O)NC2=O)cc1OC (stereo not drawn) [Example 10 - No. 1] | 57.1% | – | 30.3%
5 | CCOc1ccc(C2SC(=O)NC2=O)cc1OCC (stereo not drawn) [Example 10 - No. 2] | 57% | – | 37%
6 | CCOc1cc(C2SC(=O)NC2=O)ccc1O (stereo not drawn) [Example 10 - No. 3] | 51.6% | – | –
7 | CCOc1cc(C2SC(=O)NC2=O)ccc1OC(C)=O (stereo not drawn) [Example 10 - No. 4] | 59% | – | 23.7%
8 | CC(=O)Oc1ccc(C2SC(=O)NC2=O)cc1OC(C)=O (stereo not drawn) [Example 10 - No. 5] | 76.9% | – | –
9 | O=C1NC(=O)C(c2ccc(O)c(O)c2)S1 (stereo not drawn) [Example 10 - No. 6] | 41.8% | – | –
10 | O=C1NC(=O)C(c2ccc3c(c2)OCO3)S1 (stereo not drawn) [Example 10 - No. 7] | 47.4% | – | –
11 | CCCCOc1ccc(C2SC(=O)NC2=O)cc1OCCCC (stereo not drawn) [Example 10 - No. 8] | 51.7% | – | –
12 | CCOc1cc(C2SC(=O)NC2=O)ccc1OCCC(C)C (stereo not drawn) [Example 10 - No. 13] | 34% | – | 25.3%

Now from value to molecule, other results behind:

Row | inhibition at 1 µM (aldose reductase) | SMILES | death of mice [1] | inhibition at 1 µM (rat lens)
13 | 55.2% | CCCCOc1ccc(C2SC(=O)NC2=O)cc1OCC (stereo not drawn) [Example 10 - No. 9] | – | –
14 | 53.5% | CCCOc1ccc(C2SC(=O)NC2=O)cc1OCCC (stereo not drawn) [Example 10 - No. 10] | – | –
15 | 37.7% | CCCCCCOc1ccc(C2SC(=O)NC2=O)cc1OCC (stereo not drawn) [Example 10 - No. 12] | – | 33%
16 | 28% | CCOc1cc(C2SC(=O)NC2=O)ccc1OCC(C)(C)C (stereo not drawn) [Example 10 - No. 14] | – | 57.2%
17 | 60.6% | CCOc1cc(C2SC(=O)NC2=O)ccc1OCCCC(C)C (stereo not drawn) [Example 10 - No. 15] | – | –
18 | 38.7% | CCCCOc1ccc(C2SC(=O)NC2=O)cc1OC (stereo not drawn) [Example 10 - No. 16] | – | –
19 | 40.6% | CCCCCOc1ccc(C2SC(=O)NC2=O)cc1OC (stereo not drawn) [Example 10 - No. 17] | – | –
20 | 32.2% | CCCCCCOc1ccc(C2SC(=O)NC2=O)cc1OC (stereo not drawn) [Example 10 - No. 18] | – | –
21 | 68.1% | COc1cc(C2SC(=O)NC2=O)ccc1OCCCC(C)C (stereo not drawn) [Example 10 - No. 19] | – | –
22 | 30% | CCCCCOc1cc(C2SC(=O)NC2=O)ccc1OC (stereo not drawn) [Example 10 - No. 20] | – | –
